In general, EC50 refers to the concentration giving half of the maximal effect.

Read-outs that look alike come from different tables or passages of the source.

Common to all, as to type: cell-based
The subject of one assay is HeLa cells. Briefly: HeLa cytotoxicity assay (CellTiter Glo, 72 h). The following applies: Homo sapiens, read-out: Cell Proliferation Hela IC50. Here is the method:
(§1) HeLa cells (ATCC® CCL2™) in DMEM (Dulbecco Modified Eagle's Medium) without phenol red, Thermo, 11880, USA+10% FBS+1× PenStrep+1× Gln or HUVEC cells (ATCC® CRL1730™) in EBM-2 (Endothelial Growth Basal Medium, Lonza, CC3156)+EGM-2 SingleQuotsTMSupplements and Growth Factors (Lonza, CC4176)+1× Penicyllin-Streptomycin (PenStrep, ThermoFisher)+1× Glutamine, are plated in a 384 well plate (Thermo, 4334-11, USA) to a density of 2000 cells per well and let recover for four hours at 37° C., 5% CO2 in a humidified atmosphere. After the recovery, compounds are transferred to assay plates as per compound preparation method. Assay plates are then incubated at 37° C., 5% CO2 in a humidified atmosphere for 72 hours. Cell viability is measured by the CellTiter Glo (Promega, G8080, USA) as per manufacturer instruction.
In general terms: In ATP-based viability assays light output follows the ATP content of the culture.

Assay [1] deals with Bloodstream form of Trypanosoma brucei, strain Lister 427. Briefly: Trypanosoma brucei growth inhibition assay (CellTiter-Glo, 24 h). The note with it: Trypanosoma brucei. The procedure, abridged:
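Growth read-out was CellTiter-Glo luminescence after 24 h at 37 °C incubation of 1500 bloodstream-form Lister 427 trypanosomes per well with compound, in supplemented IMDM containing 10% FBS and at most 0.25% DMSO.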

For another assay, the system named is HUVEC cells. Put plainly: HUVEC cytotoxicity assay (CellTiter Glo, 72 h). The note with it: Homo sapiens, read-out: Cell Proliferation HUVEC IC50. How it is done:
as §1

[2] abbreviates: T. Brucei Growth Inibition Assay, class symbols, read-out: T. Brucei GI EC50.
The mark [3] stands for this setting: Table 3, read-out: T. brucei GI EC50.

For the compound `CCC(=O)CCCN1CCN(C(=O)Cc2c(C)[nH]c3ccc(OC)cc23)C(c2ncc(-c3cc4ccccc4nc3OC)[nH]2)C1` (stereo not drawn) [6-(4-(2-(5-methoxy-2-methyl-1H-indol-3-yl)acetyl)-3-(5-(2-methoxyquinolin-3-yl)-1H-imidazol-2-yl)piperazin-1-yl)hexan-3-one], the IC50 in the assay with HeLa cells is no less than 25000 nM; with HUVEC cells it was 21400 nM. The EC50 in assay [1] (setting [2]) was less than 100 nM; in assay [1] (setting [3]) it was 34.2 nM.

Consider `COc1nc2ccccc2cc1-c1cnc(C2CN(CC3CCOC3)CCN2C(=O)Cc2c(C)[nH]c3ccc(F)cc23)[nH]1` (stereo not drawn) [2-(5-fluoro-2-methyl-1H-indol-3-yl)-1-(2-(5-(2-methoxyquinolin-3-yl)-1H-imidazol-2-yl)-4-((tetrahydrofuran-3-yl)methyl)piperazin-1-yl)ethan-1-one], for which the results for the IC50 with HeLa cells and in the assay on HUVEC cells were 18700 nM and 9630 nM, respectively. Also, the figures for the EC50 in assay [1] (setting [2]) and in assay [1] (setting [3]) were less than 100 nM and 35.1 nM, respectively.

Turning to `COc1ccc2[nH]c(C)c(CC(=O)N3CCN(C)CC3c3ncc(-c4cc5ccccc5nc4OC)[nH]3)c2c1` (stereo not drawn) [2-(5-methoxy-2-methyl-1H-indol-3-yl)-1-(2-(5-(2-methoxyquinolin-3-yl)-1H-imidazol-2-yl)-4-methylpiperazin-1-yl)ethan-1-one], the IC50 in the assay with HeLa cells and in the assay with HUVEC cells was no less than 25000 nM in each case. For the same compound, the results for the EC50 in assay [1] (setting [2]) and in assay [1] (setting [3]) were 100 to 500 nM and 139 nM, respectively.

`CCC(=O)CCCN1CCN(C(=O)Cc2c[nH]c3ncccc23)C(c2ncc(-c3ccc4ccccc4c3)[nH]2)C1` (stereo not drawn): the IC50 in the assay on HeLa cells and in the assay on HUVEC cells was no less than 25000 nM each time. Also, the EC50 in assay [1] (setting [2]) is 510 to 1000 nM; in assay [1] (setting [3]), 545 nM.

As for `COc1nc2ccccc2cc1-c1cnc(C2CN(C)CCN2C(=O)Cc2c(C)[nH]c3ccc(F)cc23)[nH]1` (stereo not drawn) [2-(5-fluoro-2-methyl-1H-indol-3-yl)-1-(2-(5-(2-methoxyquinolin-3-yl)-1H-imidazol-2-yl)-4-methylpiperazin-1-yl)ethan-1-one], the IC50 was 18100 nM with HeLa cells and 5680 nM in the assay on HUVEC cells. The results for the EC50 in assay [1] (setting [2]) and in assay [1] (setting [3]) were 100 to 500 nM and 122 nM, respectively.

For `COc1nc2ccccc2cc1-c1cnc(C2CN(C3CCOCC3)CCN2C(=O)Cc2c(C)[nH]c3ccc(F)cc23)[nH]1` (stereo not drawn) [2-(5-fluoro-2-methyl-1H-indol-3-yl)-1-(2-(5-(2-methoxyquinolin-3-yl)-1H-imidazol-2-yl)-4-(tetrahydro-2H-pyran-4-yl)piperazin-1-yl)ethan-1-one], the IC50 is no less than 25000 nM in the assay on HeLa cells and 10600 nM with HUVEC cells. The concentration giving a half-maximal response (EC50) in assay [1] (setting [2]) was 100 to 500 nM; in assay [1] (setting [3]) it was 117 nM.

Take `CCC(=O)CCCN1CCN(C(=O)Cc2c(C)[nH]c3ccc(OC)cc23)C(c2ncc(-c3ccc4ccccc4c3)[nH]2)C1` (stereo not drawn) [6-(4-(2-(5-methoxy-2-methyl-1H-indol-3-yl)acetyl)-3-(5-(naphthalen-2-yl)-1H-imidazol-2-yl)piperazin-1-yl)hexan-3-one]: the IC50 is 12300 nM in the assay with HeLa cells and no less than 25000 nM in the assay on HUVEC cells. For the same compound, the EC50 in assay [1] (setting [2]) was less than 100 nM; in assay [1] (setting [3]), 9.92 nM.

For `COc1ccc2[nH]c(C)c(CC(=O)N3CCN(CC4CCOC4)CC3c3ncc(-c4cc5ccccc5nc4OC)[nH]3)c2c1` (stereo not drawn) [2-(5-methoxy-2-methyl-1H-indol-3-yl)-1-(2-(5-(2-methoxyquinolin-3-yl)-1H-imidazol-2-yl)-4-((tetrahydrofuran-3-yl)methyl)piperazin-1-yl)ethan-1-one], the values for the IC50 in the assay with HeLa cells and with HUVEC cells were no less than 25000 nM and 23200 nM, respectively. The EC50 in assay [1] (setting [2]) was less than 100 nM; in assay [1] (setting [3]) it was 22.9 nM.

For `COc1nc2ccccc2cc1-c1cnc(C2CN(Cc3cnn(C)c3)CCN2C(=O)Cc2c(C)[nH]c3ccc(F)cc23)[nH]1` (stereo not drawn) [2-(5-fluoro-2-methyl-1H-indol-3-yl)-1-(2-(5-(2-methoxyquinolin-3-yl)-1H-imidazol-2-yl)-4-((1-methyl-1H-pyrazol-4-yl)methyl)piperazin-1-yl)ethan-1-one], the IC50 worked out at 17400 nM with HeLa cells and 6720 nM in the assay on HUVEC cells. Besides, the EC50 in assay [1] (setting [2]) was 100 to 500 nM; in assay [1] (setting [3]), 172 nM.

For `CCCCCCN1CCN(C(=O)Cc2c(C)[nH]c3ccc(OC)cc23)C(c2ncc(-c3ccc4ccccc4c3)[nH]2)C1` (stereo not drawn) [1-(4-hexyl-2-(5-(naphthalen-2-yl)-1H-imidazol-2-yl)piperazin-1-yl)-2-(5-methoxy-2-methyl-1H-indol-3-yl)ethan-1-one], the IC50 in the assay with HeLa cells and with HUVEC cells was no less than 25000 nM throughout. Further, the EC50 in assay [1] (setting [2]) was less than 100 nM; in assay [1] (setting [3]), 78.7 nM.

On to `CCC(O)CCCN1CCN(C(=O)Cc2c(C)[nH]c3ccc(OC)cc23)C(c2ncc(-c3ccc4ccccc4c3)[nH]2)C1` (stereo not drawn) [1-(4-(4-hydroxyhexyl)-2-(5-(naphthalen-2-yl)-1H-imidazol-2-yl)piperazin-1-yl)-2-(5-methoxy-2-methyl-1H-indol-3-yl)ethan-1-one], for which the IC50 in the assay with HeLa cells came out at 13100 nM; with HUVEC cells, 9270 nM. For the same compound, the EC50 is less than 100 nM in assay [1] (setting [2]) and 13 nM in assay [1] (setting [3]).

As for `COc1ccc2[nH]c(C)c(CC(=O)N3CCN(CC4CCOC4)CC3c3ncc(-c4ccc5ccccc5c4)[nH]3)c2c1` (stereo not drawn) [2-(5-methoxy-2-methyl-1H-indol-3-yl)-1-(2-(5-(naphthalen-2-yl)-1H-imidazol-2-yl)-4-((tetrahydrofuran-3-yl)methyl)piperazin-1-yl)ethan-1-one], the figures for the IC50 in the assay on HeLa cells and in the assay with HUVEC cells were no less than 25000 nM and 18700 nM, respectively. For the same compound, the values for the EC50 in assay [1] (setting [2]) and in assay [1] (setting [3]) were less than 100 nM and 4.72 nM, respectively.

Consider `CCC(=O)CCCN1CCN(C(=O)Cc2c[nH]c3ccccc23)C(c2ncc(-c3ccc4ccccc4c3)[nH]2)C1` (stereo not drawn), for which the IC50 with HeLa cells was no less than 25000 nM; with HUVEC cells it was 9970 nM. The EC50 is 100 to 500 nM in assay [1] (setting [2]) and 489 nM in assay [1] (setting [3]).

In the case of `CCC(=O)CCCN1CCN(C(=O)Cc2c(C)[nH]c3ccc(OC)cc23)C(c2nnc(-c3ccc4ccccc4c3)o2)C1` (stereo not drawn) [6-(4-(2-(5-methoxy-2-methyl-1H-indol-3-yl)acetyl)-3-(5-(naphthalen-2-yl)-1,3,4-oxadiazol-2-yl)piperazin-1-yl)hexan-3-one], the IC50 in the assay on HeLa cells and in the assay on HUVEC cells was no less than 25000 nM throughout. Besides, the results for the EC50 in assay [1] (setting [2]) and in assay [1] (setting [3]) were 100 to 500 nM and 350 nM, respectively.

As to `COc1ccc2[nH]c(C)c(CC(=O)N3CCN(CC4CC4)CC3c3ncc(-c4ccc5ccccc5c4)[nH]3)c2c1` (stereo not drawn) [1-(4-(cyclopropylmethyl)-2-(5-(naphthalen-2-yl)-1H-imidazol-2-yl)piperazin-1-yl)-2-(5-methoxy-2-methyl-1H-indol-3-yl)ethan-1-one], the IC50 in the assay with HeLa cells was no less than 25000 nM; in the assay on HUVEC cells, 8060 nM. Moreover, the EC50 in assay [1] (setting [2]) was less than 100 nM; in assay [1] (setting [3]), 17.6 nM.

Turning to `COc1nc2ccccc2cc1-c1cnc(C2CN(CC3CCOC3)CCN2C(=O)Cn2c(C)nc3ccccc32)[nH]1` (stereo not drawn) [1-(2-(5-(2-methoxyquinolin-3-yl)-1H-imidazol-2-yl)-4-((tetrahydrofuran-3-yl)methyl)piperazin-1-yl)-2-(2-methyl-1H-benzo[d]imidazol-1-yl)ethan-1-one], the IC50 was 20600 nM in the assay with HeLa cells and no less than 25000 nM in the assay with HUVEC cells. The 50% effective concentration (EC50) was 100 to 500 nM in assay [1] (setting [2]) and 163 nM in assay [1] (setting [3]).

On to `O=C(Cc1c[nH]c2ncccc12)N1CCCCC1c1ncc(-c2ccc3ccccc3c2)[nH]1` (stereo not drawn), for which the EC50 in assay [1] (setting [2]) lay in the range of 1010 to 5000 nM.

Take `COc1ccc2nc(C(F)(F)F)n(CC(=O)N3CCN(C4CCS(=O)(=O)CC4)C[C@H]3c3ncc(-c4cc5ccccc5nc4OC)[nH]3)c2c1` [(S)-1-(4-(1,1-dioxidotetrahydro-2H-thiopyran-4-yl)-2-(5-(2-methoxyquinolin-3-yl)-1H-imidazol-2-yl)piperazin-1-yl)-2-(6-methoxy-2-(trifluoromethyl)-1H-benzo[d]imidazol-1-yl)ethan-1-one]: the half-maximal effective concentration (EC50) in assay [1] (setting [2]) is less than 100 nM.

On to `COc1nc2ccccc2cc1-c1cnc(C2CN(CC3CCOC3)CCN2C(=O)Cc2nc(-c3ccccc3)oc2C)[nH]1` (stereo not drawn), for which the EC50 in assay [1] (setting [2]) is 1010 to 5000 nM.

With `COc1ccc2nc(C(F)(F)F)n(CC(=O)N3CCN(C4CCN(C)CC4)C[C@H]3c3ncc(-c4cc5ccccc5nc4OC)[nH]3)c2c1`, the EC50 in assay [1] (setting [2]) is 100 to 500 nM.

Consider `CN1CCN(C(=O)Cc2ccccc2)C(c2ncc(-c3ccc4ncccc4c3)[nH]2)C1` (stereo not drawn), for which, in assay [1] (setting [2]), the half-maximal effective concentration (EC50) was in the range of 1010 to 5000 nM.

For the compound `COc1nc2ccccc2cc1-c1cnc([C@@H]2CN(CC(F)(F)F)CCN2C(=O)Cn2c(C(F)(F)F)nc3ccccc32)[nH]1` [(S)-1-(2-(5-(2-methoxyquinolin-3-yl)-1H-imidazol-2-yl)-4-(2,2,2-trifluoroethyl)piperazin-1-yl)-2-(2-(trifluoromethyl)-1H-benzo[d]imidazol-1-yl)ethan-1-one], the EC50 in assay [1] (setting [2]) is less than 100 nM.

As for `Cc1[nH]c2ccccc2c1CC(=O)N1CCN(CCc2ccccc2)CC1c1ncc(-c2ccc3ccccc3c2)[nH]1` (stereo not drawn), the EC50 in assay [1] (setting [2]) lay in the range of 510 to 1000 nM.

For `COc1ccc2nc(C(F)(F)F)n(CC(=O)N3CC[C@H](N(C)C4CCOC4)C[C@H]3c3ncc(-c4cc5ccccc5nc4OC)[nH]3)c2c1` (stereo partly drawn) [2-(6-methoxy-2-(trifluoromethyl)-1H-benzo[d]imidazol-1-yl)-1-((2S,4S)-2-(5-(2-methoxyquinolin-3-yl)-1H-imidazol-2-yl)-4-(methyl(tetrahydrofuran-3-yl)amino)piperidin-1-yl)ethan-1-one], the EC50 in assay [1] (setting [2]) is less than 100 nM.

(Values after US10815222B2, “Compounds for use in the treatment of kinetoplastid infection” (C.N.C.C.S. S.c.a.r.l. COLLEZIONE NAZIONALE DEI COMPOSTI …, priority 2016, dated 2020).)
